Like-named read-outs stand apart in the source and are kept apart here.
Assays:
ELIC [1] = target: T1, ELIC (Dickeya chrysanthemi, UniProt P0C7B7); assay: Two-electrode voltage clamp inhibition of wild-type ELIC expressed in Xenopus laevis oocytes; assay type: cell-based, Erwinia chrysanthemi
T1 construct: DNA encoding ELIC and a T7 promoter was inserted into the pCMV-mGFP Cterm S11 NeoKan (Theranostech) vector; expressed in transfected cells; host or cells: Xenopus laevis oocytes (cRNA injection)
T1 sequence (P0C7B7 whole entry): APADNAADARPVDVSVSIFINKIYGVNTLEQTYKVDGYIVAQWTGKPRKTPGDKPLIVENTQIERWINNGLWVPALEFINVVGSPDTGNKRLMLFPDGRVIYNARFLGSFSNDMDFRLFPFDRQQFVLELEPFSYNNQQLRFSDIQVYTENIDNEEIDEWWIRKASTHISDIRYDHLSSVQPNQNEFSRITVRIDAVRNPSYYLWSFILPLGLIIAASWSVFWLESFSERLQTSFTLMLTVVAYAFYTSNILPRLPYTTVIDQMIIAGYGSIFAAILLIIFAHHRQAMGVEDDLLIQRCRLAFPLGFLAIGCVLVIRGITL
Description: The scale bars are 0.2 μA (vertical) and 30s (horizontal). The data were normalized to the current at EC20 in the absence of anesthetics and fit to the Hill equation (solid lines, n ≥ 6) for the volatile (b) and intravenous (c) general anesthetics. […] The data are reported as the mean ± SEM and error bars less than the symbol size are not visible.
Site-directed mutagenesis of ELIC was introduced with the QuickChange Lightning Kit (Agilent). DNA encoding ELIC and a T7 promoter was inserted into the pCMV-mGFP Cterm S11 NeoKan (Theranostech) vector. Capped complementary RNA was transcribed with the mMessage mMachine T7 kit (Ambion), purified with the RNeasy kit (Qiagen), injected (10–25 ng) into Xenopus laevis oocytes (stages 5–6), which were maintained at 18 °C in a modified Barth’s solution[40]. […] Oocytes were clamped to a holding potential of −40 to −60 mV. The recording solutions contained 130 mM NaCl, 0.1 mM CaCl2, 10 mM HEPES, pH 7.0 as well as desired concentrations of agonist and anesthetics. Data were collected and processed using Clampex 10 (Molecular Devices). Non-linear regressions were performed using Prism software (Graphpad).
For measuring anesthetic inhibitory effects, saturated solutions of the volatile anesthetics isoflurane, sevoflurane, and halothane were prepared in the recording solution by stirring overnight at 4 °C. Concentrations of these anesthetics in the recording chamber were calibrated using ^19F NMR[63]. The intravenous anesthetics, propofol, etomidate, and thiopental, were dissolved directly into the recording solution.

α2β4 nAChR = settings: cited from earlier work
α4β2 nAChR [2] = settings: read-out: IC50 for nAChRs: α4β2 (human); cited from earlier work
α4β4 nAChR = tested on: α4β4 nAChR; set-up: method as in ref 11 (a number printed in a supplementary file, which may have a reference list of its own: not looked up in the article's list); settings: read-out: IC50 for nAChRs: α4β4 (chicken); cited from earlier work
α7 nAChR [3] = tested on: α7 nAChR; set-up: method as in ref 12 (a number printed in a supplementary file, which may have a reference list of its own: not looked up in the article's list); settings: read-out: IC50 for nAChRs: α7 (chicken); cited from earlier work
α4β2 nAChR [4] = settings: read-out: IC50 for nAChRs: α4β2 (rat); cited from earlier work
[5] = anesthetizing concentrations in animals; read-out: Clinical EC50; cited from earlier work
α4β2 nAChR [6] = tested on: α4β2 nAChR; set-up: method as in ref 6 (a number printed in a supplementary file, which may have a reference list of its own: not looked up in the article's list); settings: read-out: IC50 for nAChRs: α4β2 (chicken); cited from earlier work
ELIC A244T mutant = target: T2, ELIC A244T mutant (Dickeya chrysanthemi, UniProt P0C7B7, A243T); assay: Two-electrode voltage clamp of A244T (13′) ELIC mutant in Xenopus laevis oocytes; assay type: cell-based, Erwinia chrysanthemi
T2 construct: DNA encoding ELIC and a T7 promoter was inserted into the pCMV-mGFP Cterm S11 NeoKan (Theranostech) vector; expressed in transfected cells; host or cells: Xenopus laevis oocytes (cRNA injection)
T2 sequence (P0C7B7 whole entry A243T): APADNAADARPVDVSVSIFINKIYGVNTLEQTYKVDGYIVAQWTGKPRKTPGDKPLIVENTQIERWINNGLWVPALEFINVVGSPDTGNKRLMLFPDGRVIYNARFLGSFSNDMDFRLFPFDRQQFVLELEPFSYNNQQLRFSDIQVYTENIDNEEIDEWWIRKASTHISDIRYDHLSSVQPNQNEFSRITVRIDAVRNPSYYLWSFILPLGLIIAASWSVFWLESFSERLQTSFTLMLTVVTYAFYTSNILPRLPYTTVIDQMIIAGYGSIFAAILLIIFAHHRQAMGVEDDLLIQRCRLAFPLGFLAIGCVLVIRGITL
Description: (§1) To establish the functional relevance of the identified isoflurane-binding sites, we made site-directed mutations, one at a time, at positions 6′ (T237A) and 13′ (A244T). Subsequently, we expressed these mutants in Xenopus laevis oocytes and measured their functional responses to isoflurane (Fig. 3). […] However, these mutant channels, especially T237A, are much less sensitive to isoflurane inhibition than the WT ELIC. […] The functional consequences of these mutations are associated with changes in the hydrophobicity profile and pore radii near positions 6′ and 13′ (Supplementary Fig. 2). It should be noted that the side chains of the hydrophobic residue at the 9′ position are involved in both of the isoflurane-binding sites (Fig. 2c). The fact that the isoflurane inhibition curve shifts an order of magnitude to the right in the T237A mutant indicates the importance of amphipathic interactions at position 6′ for isoflurane inhibition.
Figure 3 Functional evidence of isoflurane binding to the pore. (a) Representative current traces for isoflurane inhibition of WT and two mutants: T237(6′)A; and A244(13′)T. The scale bars are 0.1 μA (vertical) and 30s (horizontal). (b) Agonist propylamine (PPA) concentration-response curves for WT and two mutants indicated in (a). The data were normalized to the maximum current and fit to the Hill equation (solid lines, n ≥ 5). (c) Isoflurane inhibition of WT and the two mutants indicated in (a). The data were normalized to the current at EC20 in the absence of isoflurane and fit to the Hill equation (solid lines, n ≥ 6). The data are reported as the mean ± SEM and error bars less than the symbol size are not visible.
Site-directed mutagenesis of ELIC was introduced with the QuickChange Lightning Kit (Agilent). DNA encoding ELIC and a T7 promoter was inserted into the pCMV-mGFP Cterm S11 NeoKan (Theranostech) vector. […]

ELIC T237A mutant = target: T3, ELIC T237A mutant (Dickeya chrysanthemi, UniProt P0C7B7, T236A); assay: Two-electrode voltage clamp of T237A (6′) ELIC mutant in Xenopus laevis oocytes; assay type: cell-based, Erwinia chrysanthemi
T3 construct: DNA encoding ELIC and a T7 promoter was inserted into the pCMV-mGFP Cterm S11 NeoKan (Theranostech) vector; expressed in transfected cells; host or cells: Xenopus laevis oocytes (cRNA injection)
T3 sequence (P0C7B7 1-321 T236A): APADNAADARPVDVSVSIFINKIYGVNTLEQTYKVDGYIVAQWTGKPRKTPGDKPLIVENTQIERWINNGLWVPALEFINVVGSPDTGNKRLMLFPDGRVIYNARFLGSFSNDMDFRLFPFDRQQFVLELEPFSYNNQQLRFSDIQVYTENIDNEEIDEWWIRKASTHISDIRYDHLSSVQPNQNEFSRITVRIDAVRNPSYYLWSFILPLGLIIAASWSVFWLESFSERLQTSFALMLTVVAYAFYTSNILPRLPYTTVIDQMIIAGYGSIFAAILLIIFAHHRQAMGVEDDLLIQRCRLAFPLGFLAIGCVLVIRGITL
Description: as §1
Figure 3 Functional evidence of isoflurane binding to the pore. (a) Representative current traces for isoflurane inhibition of WT and two mutants: T237(6′)A; and A244(13′)T. The scale bars are 0.1 μA (vertical) and 30s (horizontal). (b) Agonist propylamine (PPA) concentration-response curves for WT and two mutants indicated in (a). The data were normalized to the maximum current and fit to the Hill equation (solid lines, n ≥ 5). […]

ELIC [7] = target: T1, ELIC; assay: Isoflurane pre-incubation: onset of agonist-induced ELIC current; assay type: cell-based, Erwinia chrysanthemi; settings: mean ± SEM, n = 15
Protocol: Since isoflurane binds to the pore of the resting state of ELIC (Fig. 2a), pre-incubating the oocytes expressing ELIC with isoflurane for a short period of time is expected to enhance the inhibitory effect.
Figure 4 Isoflurane binding stabilized the closed channel. (a) A representative trace showing that pre-incubation with isoflurane (red arrows) slowed the onset rate and increased the maximum inhibition. The vertical and horizontal scale bars represent 20 μA and 30 seconds, representatively. (b) The onset rate of the channel current can be fitted to a single exponential decay function, I = Imax (1−e^(−t/τ)). The fitting results for the onset rate τ and Imax for channels pre-incubated with isoflurane (red line) are 1.73 ± 0.04 s and −0.33 ± 0.02 μA, respectively; and 1.25 ± 0.05 s and −0.41 ± 0.03 μA, respectively, for channels without isoflurane pre-incubation (green line). The fitting parameters are expressed as mean ± SEM (n = 15).
Site-directed mutagenesis of ELIC was introduced with the QuickChange Lightning Kit (Agilent). DNA encoding ELIC and a T7 promoter was inserted into the pCMV-mGFP Cterm S11 NeoKan (Theranostech) vector. Capped complementary RNA was transcribed with the mMessage mMachine T7 kit (Ambion), purified with the RNeasy kit (Qiagen), injected (10–25 ng) into Xenopus laevis oocytes (stages 5–6), which were maintained at 18 °C in a modified Barth’s solution[40]. All procedures involving Xenopus laevis oocytes were approved by the University of Pittsburgh Institutional Animal Care and Use Committee (IACUC), Protocol 14114745. Two-electrode voltage clamp experiments were performed 16–40 hrs after injection using an Oocyte Clamp OC-725C amplifier (Warner Instruments), Digidata 1440A digitizer (Axon Instruments), and a 20 μl chamber (Automate Scientific). Oocytes were clamped to a holding potential of −40 to −60 mV. The recording solutions contained 130 mM NaCl, 0.1 mM CaCl2, 10 mM HEPES, pH 7.0 as well as desired concentrations of agonist and anesthetics. Data were collected and processed using Clampex 10 (Molecular Devices). Non-linear regressions were performed using Prism software (Graphpad).

α3β4 nAChR = tested on: α3β4 nAChR; set-up: method as in ref 8 (a number printed in a supplementary file, which may have a reference list of its own: not looked up in the article's list); settings: read-out: IC50 for nAChRs: α3β4; cited from earlier work
α7 nAChR [8] = tested on: α7 nAChR; set-up: method as in ref 16 (a number printed in a supplementary file, which may have a reference list of its own: not looked up in the article's list); settings: read-out: IC50 for nAChRs: α7 (human); cited from earlier work
[9] = WT ELIC, agonist propylamine (PPA) at EC20, oocytes, mean ± SEM, n ≥ 6, read-out: IC50 for ELIC
[10] = channels pre-incubated with isoflurane, single exponential fit
[11] = channels without isoflurane pre-incubation

SMILES: FCOC(C(F)(F)F)C(F)(F)F [sevoflurane]
- IC50 (ELIC [1]; [9]): 23.2 ± 1.6 µM

SMILES: FC(F)(F)C(Cl)Br (centres unmarked) [halothane]
- IC50 (ELIC [1]; [9]): 40 ± 4.5 µM
- IC50 (α2β4 nAChR; read-out: IC50 for nAChRs: α2β4 (human)): 47 µM
- IC50 (α4β2 nAChR [2]): 27 µM

SMILES: CCOC(=O)c1cncn1[C@H](C)c1ccccc1 [etomidate]
- IC50 (ELIC [1]): 11.2 ± 1.1 µM
- IC50 (α4β4 nAChR): 33 µM
- IC50 (α7 nAChR [3]): 25.3 µM
- IC50 (α4β2 nAChR [4]): 49 µM

SMILES: CC(C)c1cccc(C(C)C)c1O [propofol]
- IC50 (ELIC [1]; [9]): 11.9 ± 1.1 µM
- EC50 [5]: 1.5 µM
- IC50 (α4β2 nAChR [6]): 19 µM
- IC50 (α4β2 nAChR [4]): 4.5 µM

SMILES: FC(F)OC(Cl)C(F)(F)F (centres unmarked) [isoflurane]
- IC50 (ELIC A244T mutant): 61.7 ± 5.5 µM
- Increase of isoflurane IC50 relative to the WT channel (ELIC A244T mutant; A244T vs WT ELIC): ~3 fold
- IC50 (ELIC T237A mutant; T237A (6′) mutant, PPA at EC20, mean ± SEM, n ≥ 6, read-out: IC50 of isoflurane, T237A channel): 525 ± 58.2 µM
- Increase of isoflurane IC50 relative to the WT channel (ELIC T237A mutant; T237A vs WT ELIC): more than an order of magnitude
- IC50 (ELIC [1]; [9]): 21.9 ± 1.5 µM
- Imax of channel current (ELIC [7]; [10]): −0.33 ± 0.02 μA
- Onset rate τ of channel current (ELIC [7]; [10]): 1.73 ± 0.04 s
- Imax of channel current (ELIC [7]; [11]): −0.41 ± 0.03 μA
- Onset rate τ of channel current (ELIC [7]; [11]): 1.25 ± 0.05 s
- IC50 (α2β4 nAChR; read-out: IC50 for nAChRs: α2β4): 25 µM
- IC50 (α3β4 nAChR): 56 µM
- IC50 (α4β2 nAChR [2]): 82 µM

SMILES: CCCC(C)C1(CC)C(=O)NC(=S)NC1=O (centres unmarked) [thiopental]
- IC50 (ELIC [1]): 42.8 ± 1.1 µM
- EC50 [5]: 25 µM
- IC50 (α4β2 nAChR [4]): 26 µM
- IC50 (α7 nAChR [8]): 40.6 µM

SMILES: CCCN [PPA, propylamine]
- EC50 of agonist PPA compared with WT ELIC (ELIC A244T mutant; A244T mutant vs wild-type ELIC): nearly identical
